In publication PMC13586308, “Cell type–selective targeting by heterobifunctional protein binders via in-cell enrichment” (Nature Communications, 2026):

Tests used:
MV4-11 cells = assay: CellTiter-Glo cell viability, MV4-11; type: cell-based, human; settings: five days, without FKBP12 PROTAC; for IC50: Homo sapiens, MV4-11, 120 h, read-out: Cell toxicity (MV4-11) - FKBP12 PROTAC IC50
PNT1A cells [1] = assay: CellTiter-Glo cell viability, PNT1A; type: cell-based; settings: concentrations of up to 1 µM
PNT1A cells [2] = assay: co-culture live cell microscopy cell count, PNT1A; type: cell-based; settings: all concentrations
gene expression = assay: RNA sequencing, MV4-11; type: cell-based, human; settings: MV4-11, 6 h
Experimental: RNA was isolated using the Monarch Total RNA Isolation Kit. RNA quality was assessed using an Agilent TapeStation. All samples had calculated RINe values > 6 with a flat baseline. […] Samples were demultiplexed, and FastQ files were generated. Raw FASTQ reads were quality-filtered using fastp v1.3.2 to remove adapters, low-quality bases (Phred ≤ 5 in > 50% of read) and poly-N regions (> 10% N bases), retaining reads with Q20 ≥ 95% and Q30 ≥ 90%. GC content was calculated for clean reads. Filtered sequence reads were aligned to the human reference genome GRCh38 using HISAT2 v2.2.1, guided by GTF annotation. Mapped data were summarized on the gene level as Fragments Per Kilobase of transcript sequence per Millions base pairs sequenced (FPKM). Gene counts were quantified using featureCounts v2.0.6. Further data evaluation, normalization and pairwise differential expression analyses was done by DESeq2. For clustering, all differentially expressed genes were pooled as the differential gene set. FPKM values of genes were hierarchically clustered, rows were homogenized as Z-scores. For enrichment analysis of the differential expressed genes, cluster Profiler (Yu G, 2012) software was used on Gene Ontology (http://www.geneontology.org/) terms reflecting biological processes.

[3] = in vitro metabolic study (intrinsic clearance); type: in vitro ADME; settings: intrinsic clearance (Clint) study, rebuttal letter
Source text: 4.2. To strengthen the paper, the authors should consider conducting in vivo experiments to […]
a more comprehensive understanding of the therapeutic potential and pharmacokinetic […]
The current compounds were designed for mechanistic studies, not for in vivo experiments. To assess the possibility of animal studies we conducted an in vitro metabolic study for the two most advanced compounds (a1dj and b3c). […]
labile (see below). While we agree that it is exciting to explore the influence of the CellTrap effect on pharmacokinetic properties this must be explored in follow up studies, which require substantial medicinal chemistry optimization. With the current compounds we believe animal experiments are ethically not warranted.
4.3. Are there specific residues essential for the observed cooperativity? If so, empirically mapping these mutants and testing for a reduction in binding would help validate the structures and provide clues to the translatability of the CellTrap mechanism. […]
mediate the direct protein contacts to BRD4. To explore this, we measured binding of the homolog FKBP51, which differs in the loop/strand regions, to BRD4. […]
cooperativity for any compound, strongly supporting the relevance of the crystallographically observed contact. We discussed this in the text as:
In both ternary complexes, contacts to BRD4BD1 are formed by the tip of the so called 80s loop of […]

[4] = tested on: human myeloma cell lines (HMCL); assay: cell viability, panel of human myeloma cell lines +/- FKBP12 PROTAC; type: cell-based; settings: all myeloma cell lines tested
MYC mRNA = assay: wash-off experiment, MYC mRNA in MV4-11; type: cell-based, human
[5] = tested on: FKBP and BRD4 family members; assay: global proteomics after PROTAC treatment, MV4-11; type: cell-based, Homo sapiens
Experimental: Cell pellets equivalent to those used in the cell uptake assay were resuspended in 220 μL of 50 mM Tris pH 8.0, 2% SDS for 30 min at 850 rpm at RT, and centrifuged at 15000 g for 15 min. […] The supernatant was reduced with 5 mM DTT at 37 °C for 30 min then alkylated with 15 mM iodoacetamide at room temperature for 30 min in the dark. 150 μl of the solutions were subjected to a Protein Aggregation Capture digestion protocol using amine magnetic beads ([…]) and a King Fischer instrument (Thermo Scientific). In short, soluble proteins are captured on the magnetic beads and washed prior to the addition of 1/50 (w/w) trypsin (Promega) for an overnight digestion at 37 °C and 850 rpm. On the consecutive day, digested peptides are released, and the peptide concentration of the supernatants determined using a fluorimetric assay (Pierce). 200 ng peptide was loaded on Evotips (Evosep Biosystems). Peptides were separated on an Evosep One LC system coupled to a timsTOF Pro 2 instrument (Bruker) using a 30-sample-per-day method (44 min gradient). Peptides were resolved on an 8 cm, 1.5 μm x 150 μm Performance column (Evosep Biosystems). […] The relaxed-prot-inf option was used for library-free processing of the data. […] Match between runs (MBR) was enabled, and the normalization option switched on.

[6] = cell uptake assay (LC-MS/MS) in MV4-11

Cc1sc2c(c1C)C(c1ccc(Cl)cc1)=NC(CC(=O)N1CCC3(CC1)CC(n1cc(C4CN(Cc5ccccn5)C(=O)C5CCCC4N5S(=O)(=O)c4cc(Cl)cc(Cl)c4)nn1)C3)c1nnc(C)n1-2 (centres unmarked) [a13c]
IC50 (MV4-11 cells): 7.7 nM
effect on PNT1A viability (PNT1A cells [1]): did not affect
effect on PNT1A cells in co-culture (PNT1A cells [2]): unaffected

Cc1sc2c(c1C)C(c1ccc(C#CCNC(=O)COCCn3cc(C4CN(Cc5ccccn5)C(=O)C5CCCC4N5S(=O)(=O)c4cc(Cl)cc(Cl)c4)nn3)cc1)=NC(CC(=O)OC(C)(C)C)c1nnc(C)n1-2 (centres unmarked) [b3c]
IC50 (MV4-11 cells): 0.06 nM
Cell toxicity (MV4-11) - FKBP12 PROTAC IC50 (MV4-11 cells): sub-nanomolar
differentially expressed genes compared to JQ1-treated cells (gene expression): about 300 genes
in vitro metabolic stability [3]: metabolically labile

Cc1sc2c(c1C)C(c1ccc(Cl)cc1)=NC(CC(=O)NCCOCCn1cc(COCC3CN(C(C)c4ccccn4)C(=O)C4CCCC3N4S(=O)(=O)c3cc(Cl)cc(Cl)c3)nn1)c1nnc(C)n1-2 (centres unmarked) [a1dj]
IC50 (MV4-11 cells): 0.09 nM
Cell toxicity (MV4-11) - FKBP12 PROTAC IC50 (MV4-11 cells): sub-nanomolar
cytotoxicity upon depletion of FKBP12 compared to JQ1 [4]: almost identical to JQ1
persistence of MYC repression after compound wash-out (MYC mRNA): up to 24 h
effect on BRD4 levels by global proteomics [5]: did not affect BRD4 levels
differentially expressed genes compared to JQ1-treated cells (gene expression): about 300 genes
in vitro metabolic stability [3]: metabolically labile
effect of prior BRD4 depletion on cellular compound levels ([6]; BRD4-degrading PROTAC 43): did not affect cellular compound levels
concentration in the cellular fraction ([6]; MV4-11, 10 nM a1dj 2 h, mean across four independent experiments): 1680 ± 350 nM
reduction of intracellular accumulation upon FKBP12 degradation by PROTAC 5a1, mean ([6]; MV4-11, 100 nM 5a1): 51%
approximated concentration in the cellular fraction ([6]; MV4-11, earlier manuscript version quoted in rebuttal): > 1.8 µM
additional cellular enrichment mediated by other FKBPs ([6]; abolished by competition with 10 µM 18-(S)Me): 22%
FKBP12-mediated share of cellular accumulation ([6]; abolished by prior FKBP12 depletion, earlier manuscript version quoted in rebuttal): 58%
